# From patent US20210145802A1, “THERAPY FOR OPHTHALMOLOGICAL CONDITIONS” (WREN THERAPEUTICS LIMITED, priority 2018, published 2021)
# Target: T1, Aβ42 (Homo sapiens, UniProt P05067)
# T1 construct: […]; made in house; host or cells: E. coli BL21 Gold (DE3)
# Assay: ThT kinetic assay of Aβ42 fibril formation (unseeded)
# Format: biochemical
# Conditions: 2 μM Aβ42; 5× drug:protein concentration
# Text: The recombinant Aβ(M1-42) peptide ([…]-SNKGAIIGLMVGGVVIA [SEQ ID NO: 1]), here called Aβ42, was expressed in the E. coli BL21 Gold (DE3) strain (Stratagene, CA, U.S.A.) and purified as described previously with slight modifications. Briefly, the purification procedure involved sonication of E. coli cells, dissolution of inclusion bodies in 8 M urea, and ion exchange in batch mode on diethylaminoethyl cellulose resin and lyophylization. The lyophilized fractions were further purified using Superdex 75 HR 26/60 column (GE Healthcare, Buckinghamshire, U.K.) and eluates were analyzed using SDS-PAGE for the presence of the desired protein product. The fractions containing the recombinant protein were combined, frozen using liquid nitrogen, and lyophilized again.
# Except for Netoglitazone, which was custom synthesised by GVK BIO, all small molecules were purchased with a purity greater than 99%. Small molecules were first solubilized in 100% DMSO to a concentration of 5 mM, and then diluted in the peptide solution to reach a final DMSO concentration of maximum 1-3%. We verified that the addition of DMSO in the reaction mixture has no effect on Aβ42 aggregation.
# Solutions of monomeric peptides were prepared by dissolving the lyophilized Aβ42 peptide in 6 M GuHCl. Monomeric forms were purified from potential oligomeric species and salt using a Superdex 75 10/300 GL column (GE Healthcare) at a flowrate of 0.5 mL/min, and were eluted in 20 mM sodium phosphate buffer, pH 8 supplemented with 200 μM EDTA and 0.02% NaN3. The centre of the peak was collected, and the peptide concentration was determined from the absorbance of the integrated peak area using ε280=1490 L mol^−1 cm^−1. The obtained monomer was diluted with buffer to the desired concentration and supplemented with 20 μM Thioflavin T (ThT) from a 1 mM stock. All samples were prepared in low binding Eppendorf tubes on ice using careful pipetting to avoid introduction of air bubbles. Each sample was then pipetted into multiple wells of a 96-well half-area, low-binding, clear bottom and PEG coating plate (Corning 3881), 80 μL per well. Aβ42 kinetics have been performed in the absence or the presence of Netoglitazone, Mitoglitazone, Rosiglotazone, Rivoglitazone, Pioglitazone, Ciglitazone, Englitazone, Darglitazone, Troglitazone and B alaglitazone.
# T1 sequence (P05067 671-713): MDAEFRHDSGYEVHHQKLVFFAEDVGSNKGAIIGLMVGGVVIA
row,SMILES,delay of Aβ42 aggregation
1,Cn1c(COc2ccc(CC3SC(=O)NC3=O)cc2)nc2ccccc2c1=O (stereo not shown) [Balaglitazone],little to no delay
2,Cc1oc(-c2ccccc2)nc1CCC(=O)c1ccc(CC2SC(=O)NC2=O)cc1 (stereo not shown) [Darglitazone],observed to delay
3,CCc1ccc(C(=O)COc2ccc(CC3SC(=O)NC3=O)cc2)nc1 (stereo not shown) [Mitoglitazone],little to no delay
4,COc1ccc2nc(COc3ccc(CC4SC(=O)NC4=O)cc3)n(C)c2c1 (stereo not shown) [Rivoglitazone],little to no delay
